Reference: article PMC11726016 (Cancer Discovery, 2024)

Assays:
[1] = tested on: endogenous MTAP WT and MTAP-deleted cancer cell lines; assay: Viability in a panel of endogenous MTAP WT and MTAP-deleted cancer cells; assay type: cell-based, human; conditions: 6 days
[2] = tested on: DOHH-2 tumors; assay: DOHH-2 tumor study, AM-9747 vs LLY-283; assay type: in vivo, mouse; conditions: LLY-283 30 mg/kg, AM-9747 100 mg/kg PO QD
[3] = tested on: bone marrow progenitors and circulating blood cells; assay: Bone marrow progenitor populations and circulating blood cells; assay type: in vivo, mouse; conditions: DOHH-2 study; LLY-283 30 mg/kg, AM-9747 100 mg/kg PO QD
[4] = tested on: SDMA and γH2AX in bone marrow, blood and DOHH-2 tumor; assay: Pharmacodynamics and MOA in vivo assay; conditions: DOHH-2 study, Day 11; LLY-283 30 mg/kg, AM-9747 100 mg/kg PO QD

In the case of Nc1ncnc2c1ccn2[C@@H]1O[C@H]([C@H](O)c2ccccc2)[C@@H](O)[C@H]1O [LLY-283], the “relation of MTAP status to sensitivity in the cell panel” value [1] is reported as “MTAP status did not track closely with sensitivity”, the tumor-free mice [2] is reported as 2/10 and the “circulating blood cells (RBC, reticulocytes, platelets)” value [3] is reported as “highly substantial reductions in red blood cells (RBC), reticulocytes, and platelets”. For the same compound, the “megakaryocytic and erythroid progenitors (MEP) population in bone marrow” value [3] was “substantial reduction”, the “Blood SDMA decrease” value [4] was 79% and the “Bone marrow SDMA decrease” value [4] was 71%. The “Tumor SDMA decrease” value [4] was 21%.
